Marks after values point to notes of the source that are not given here. Non-standard residues stand in square brackets, D forms with d. No end group written: not given here. *: point of attachment. Boc = CC(C)(C)OC(=O)*; OtBu = CC(C)(C)O*; tBu = CC(C)(C)*
Assays:
Type in all cases: biochemical
[1] = test system: enzyme derived from Sphingobacterium sp. strain FERM BP-8124; experiment: Substrate specificity of enzyme derived from Sphingobacterium sp.; set-up: key to Produced peptide (mM): +: those peptides for which production was confirmed but which were unable to be quantified due to the absence of a standard; a trace amount; conditions: carboxy component 100 mM, amine component 150 mM, 0.33 units enzyme, pH 9.0, 25° C., 1.5 hours
[2] = test system: peptide-forming enzyme from Empedobacter brevis strain FERM BP-8113; experiment: Substrate specificity of enzyme (peptide production from carboxy and amine components); set-up: key to Formed peptide (mM): +: those peptides for which production was confirmed but which were unable to be quantified due to the absence of a standard; a trace amount; conditions: pH 9.0, 25° C.; for Formed peptide (mM) / Formed peptide: L-amino acid methyl ester hydrochloride 100 mM, 3 hours; for Formed peptide (mM): 150 mM L-glutamine; for Formed peptide: L-amino acid 150 mM
Text: Ester specificity was examined in the case of using L-amino acid ester for the carboxy component. […] HCl represents hydrochloride in Table 4.
Peptide production was examined in the case of using L-alanine methyl ester for the carboxy component and using various L-amino acids for the amine component.
Peptide production was examined in the case of using various types of L-amino acid methyl esters for the carboxy component and using L-glutamine for the amine component. […] Furthermore, Tween-80 was added to the reaction system to a final concentration of 0.1% in the case of using L-Trp-OMe and L-Tyr-OMe.

[3] = test system: peptide-forming enzyme from Empedobacter brevis strain FERM BP-8113; experiment: as above; set-up: key to Formed peptide (mM): +: those peptides for which production was confirmed but which were unable to be quantified due to the absence of a standard; a trace amount
[4] = L or D amino acid methyl ester hydrochloride 100 mM, L or D amino acid 150 mM, pH 9.0, 25° C., 3 hours
[5] = β-amino acid ester or β-amino acid, carboxy component 100 mM, amine component 150 mM, pH 9.0, 25° C., 3 hours
[6] = oligopeptide production, amount of enzyme 1.0 unit, pH 9.0, 25° C., 3 hours
[7] = carboxy component 100 mM, peptide amine component 150 mM, pH 9.0, 25° C., 3 hours
[8] = L-alanine methyl ester hydrochloride 100 mM, L-amino acid amide hydrochloride 150 mM, pH 9.0, 25° C., 3 hours
[9] = amino acid methyl ester hydrochloride 100 mM, methylamine 150 mM, pH 9.0, 25° C., 3 hours
[10] = carboxy component 100 mM, amine component 150 mM, 0.1 unit enzyme, 25° C., reaction time 2 hr
[11] = carboxy component 40 mM, amine component 40 mM, 0.1 unit enzyme, 25° C., reaction time 3 hr
[12] = carboxy component 100 mM, amine component 150 mM, 0.1 unit enzyme, 25° C., reaction time 3 hr

L-Ala-L-Ile
Produced peptide ([1]; Table 15-1): 24.7 mM

γ-L-Glu-L-Gln
Formed peptide (mM) [2]: +

L-Trp-L-Met
Formed peptide [2]: 4.1 mM

L-Asn-L-Gln
Formed peptide (mM) [2]: +

L-Asn-L-Glu
Formed peptide [2]: 10.2 mM

L-Ala-L-Trp
Produced peptide ([1]; Table 15-1): 46.0 mM

D-Ala-D-Gln
Formed peptide (mM) [3, 4]: tr

D-Ser-L-Ser
Formed peptide [3, 4]: 3.3 mM

L-Phe-L-Ser
Formed peptide ([3]; L-amino acid amide hydrochloride 100 mM as carboxy component, L-amino acid 150 mM, pH 9.0, 25° C., 3 hours): 0.6 mM

β-Ala-β-Ala
Formed peptide [3, 5]: 0.2 mM

Gly-Phe-Met
Produced peptide [3, 6]: 13.3 mM

L-Ala-L-Ala-L-Gln
Produced peptide [3, 7]: 15.2 mM

D-Ala-L-Gln
Formed peptide [3, 4]: 69.3 mM

L-Ala-L-CySH
Produced peptide (mM) ([1]; Table 15-1): +

D-Met-D-Ser
Formed peptide [3, 4]: 2.7 mM

L-Ala-L-Phe-NH2
Formed peptide [3, 8]: 12.2 mM | Produced peptide ([1]; Table 15-4): 27.1 mM

D-Met-L-Ser
Formed peptide [3, 4]: 5.1 mM

CNC(=O)CN [Gly-methylamine]
Formed peptide [3, 9]: 1.1 mM | Produced peptide ([1]; Table 15-4): 1.0 mM

Gly-β-Ala
Formed peptide [3, 5]: 2.2 mM

Ala-β-Ala
Formed peptide [3, 5]: 7.7 mM

H-Ala-Ser(tBu)-OH
Produced peptide [3, 10]: 48.8 mM

L-Ala-D-Gln
Formed peptide [3, 4]: 0.3 mM

L-Leu-L-Met
Formed peptide [2]: 12.2 mM

L-Ala-L-Asp
Produced peptide ([1]; Table 15-1): 2.3 mM

Thr-β-Ala
Formed peptide [3, 5]: 3.2 mM

L-Ala-L-Pro
Produced peptide ([1]; Table 15-1): 1.5 mM

L-Thr-L-Ser
Formed peptide [2]: 58.2 mM

L-Ala-L-Ala-NH2
Formed peptide [3, 8]: 8.3 mM | Produced peptide ([1]; Table 15-4): 9.2 mM

H-Ala-Cl—F-Phe-OH
Produced peptide [3, 11]: 20.8 mM

L-Leu-L-Gln
Formed peptide (mM) [2]: +

L-Met-D-Ser
Formed peptide [3, 4]: 1.9 mM

L-Tyr-Gly-Gly-L-Phe-L-Met
Produced peptide [3, 6]: 2.7 mM

H-Ala-Lys(Boc)-OH
Produced peptide [3, 10]: 51.0 mM

L-His-L-Gln
Formed peptide (mM) [2]: +

H-Aib-Phe-OH
Produced peptide [3, 12]: 17.2 mM

D-Thr-D-Ser
Formed peptide [3, 4]: 1.1 mM

L-CySH-L-Gln
Formed peptide (mM) [2]: +

Gly-Gly-L-Gln
Produced peptide [3, 7]: 7.2 mM

β-L-Asp-L-Gln
Formed peptide (mM) [2]: tr

CC(C)OC(=O)[C@H](C)N.Cl [L-Alanine isopropyl ester•HCl]
L-Ala-L-Gln formed ([2]; carboxy component 100 mM, 200 mM L-glutamine, 2 hours): 78.9 mM

α-L-Glu-L-Gln
Formed peptide (mM) [2]: +

L-Trp-L-Gln
Formed peptide (mM) [2]: +

L-Thr-Gly-Gly
Produced peptide [3, 7]: 83.0 mM | Produced peptide ([1]; oligopeptide production): 8.4 mM

L-Ser-D-Ser
Formed peptide [3, 4]: 16.2 mM

L-Ala-L-Lys
Produced peptide ([1]; Table 15-1): 71.2 mM

Thr-β-Phe
Formed peptide [3, 5]: 1.4 mM

L-Ala-L-Ala-L-Ala-L-Ala-L-Ala-L-Ala
Produced peptide (mM) ([3]; carboxy component 10 mM, amine component 15 mM, pH 9.0, 25° C., 3 hours): 1.4* mM

β-Ala-L-α-Ala
Formed peptide (mM) [3, 5]: tr

D-Val-D-Ser
Formed peptide [3, 4]: 0.5 mM

Gly-β-Phe
Formed peptide [3, 5]: 0.4 mM

H-Aib-H-Gln-OH
Produced peptide [3, 12]: 18.8 mM

Ala-β-Phe
Formed peptide [3, 5]: 1.4 mM

L-Ala-L-Leu-L-Ala
Produced peptide [3, 7]: 48.3 mM | Produced peptide ([1]; oligopeptide production): 40.7 mM

D-Val-L-Ser
Formed peptide [3, 4]: 0.6 mM

D-Ala-L-Ser
Formed peptide [3, 4]: 20.3 mM | Produced peptide ([1]; Table 15-1): 24.1 mM

L-Ala-L-Ala
Produced peptide [3, 7]: 28.7 mM | Produced peptide ([1]; Table 15-1): 13.1 mM | Produced peptide ([1]; oligopeptide production): 25.6 mM

CNC(=O)[C@@H](N)[C@@H](C)O [L-Thr-methylamine]
Formed peptide [3, 9]: 0.2 mM | Produced peptide ([1]; Table 15-4): 0.3 mM

L-Ala-L-Asn
Produced peptide ([1]; Table 15-1): 52.3 mM

H-Ala-p-F-Phe-OH
Produced peptide ([3]; carboxy component 50 mM, amine component 50 mM, 0.1 unit enzyme, 25° C., reaction time 3 hr): 21.9 mM

H-Asp(OtBu)-Gln-OH
Produced peptide [3, 10]: 0.9 mM

H-p-NO2-Phe-H-Gln-OH
Produced peptide [3, 11]: 1.1 mM

L-Ala-L-His-L-Ala
Produced peptide [3, 7]: 55.9 mM | Produced peptide ([1]; oligopeptide production): 58.0 mM

CNC(=O)C(C)N [L-Ala-methylamine]
Formed peptide [3, 9]: 0.3 mM | Produced peptide ([1]; Table 15-4): 0.6 mM

β-Ala-L-Gln
Formed peptide [3, 5]: 0.6 mM

L-Ala-Gly-Gly
Produced peptide [3, 7]: 41.7 mM | Produced peptide ([1]; oligopeptide production): 33.7 mM

L-Val-D-Ser
Formed peptide [3, 4]: 1.4 mM

L-Ala-D-Ser
Formed peptide [3, 4]: 5.4 mM | Produced peptide ([1]; Table 15-1): 3.3 mM

H-Ala-Asp(OtBu)-OH
Produced peptide [3, 10]: 62.6 mM

D-Thr-L-Ser
Formed peptide [3, 4]: 1.0 mM

L-Ala-L-Ala-L-Ala-L-Ala-L-Ala
Produced peptide [3, 7]: 34.8 mM | Produced peptide ([1]; oligopeptide production): 22.8 mM

β-Ala-L-Ser
Formed peptide [3, 5]: 3.2 mM

L-Ala-L-Tyr
Produced peptide ([1]; Table 15-1): 11.1 mM

Gly-L-Ala-L-Tyr
Produced peptide [3, 7]: 1.7 mM | Produced peptide ([1]; oligopeptide production): 0.6 mM

L-Ala-Gly
Produced peptide ([1]; Table 15-1): 11.1 mM

D-Ala-D-Ser
Formed peptide [3, 4]: 0.2 mM | Produced peptide ([1]; Table 15-1): 5.5 mM

H-Ala-p-NO2-Phe-OH
Produced peptide [3, 11]: 27.5 mM

L-Ala-Gly-NH2
Formed peptide [3, 8]: 7.4 mM | Produced peptide ([1]; Table 15-4): 15.1 mM

[dA]-Gly-Phe
Produced peptide (mM) ([3]; oligopeptide production, amount of enzyme 0.1 unit, pH 9.0, 25° C., 3 hours): Tr

D-Ser-D-Ser
Formed peptide [3, 4]: 2.5 mM

L-Ala-L-Ala-L-Ala-L-Ala
Produced peptide [3, 7]: 44.5 mM | Produced peptide ([1]; oligopeptide production): 30.1 mM

L-Thr-D-Ser
Formed peptide [3, 4]: 6.9 mM

H-Ala-t-Leu-OH
Produced peptide [3, 12]: 0.4 mM

H—N—Me-Ala-H-Gln-OH
Produced peptide [3, 12]: 0.5 mM

L-Ala-L-Phe-Gly
Produced peptide [3, 7]: 43.7 mM | Produced peptide ([1]; oligopeptide production): 34.0 mM

L-Ala-Gly-L-Ala
Produced peptide [3, 7]: 25.9 mM | Produced peptide ([1]; oligopeptide production): 35.1 mM

L-Ala-L-Thr
Produced peptide ([1]; Table 15-1): 47.3 mM

L-Ala-L-Val
Produced peptide ([1]; Table 15-1): 10.9 mM

L-Ala-L-Ala-L-Ala
Produced peptide [3, 7]: 57.5 mM | Produced peptide ([1]; oligopeptide production): 41.1 mM

L-Ala-L-Phe-L-Ala
Produced peptide [3, 7]: 49.7 mM | Produced peptide ([1]; oligopeptide production): 24.8 mM

Gly-Gly-L-Tyr-L-Ala
Produced peptide [3, 7]: 44.2 mM

L-Ala-L-Glu
Produced peptide ([1]; Table 15-1): 39.1 mM

— patent publication US8753841B2, “Enzyme that catalyzes a peptide-forming reaction from a carboxy component and an amine component, microbe producing the same, and a method of producing a dipeptide using the enzyme or microbe” (Ajinomoto Co., Inc., priority 2002, dated 2014)
